{"source": "patent US11473088B2", "about": "“Method of treating cancer and method of sensitizing cancer cells to the action of chemotherapeutic agents via growth hormone receptor antagonists or knock down” (Ohio University, priority 2016, dated 2022)", "test_system": "SK-MEL-28 cells", "assay": "RT-qPCR of RNA levels after hGH addition or GHR-KD", "type": "cell-based, human", "description": "For hGH treatment, 16 hours after seeding (or 24 hours post-transfection), the cells were serum-starved for 2 hours in serum-free growth media, and hGH (phosphate buffered saline was used as control where applicable) was added at the noted concentrations (0-, 5-, 50-, and 150 ng/ml). Cells were subsequently incubated for 24 hours before evaluating RNA levels. Recombinant hGH was purchased from Antibodies Online (#ABIN2017921, Atlanta, Ga.).\nTransfection was performed using siLentFect lipid reagent (Biorad #170-3360, Hercules, Calif.) following the manufacturer's protocol. […] Mock transfections were performed using universal scrambled negative control siRNA-duplex (Origene #SR30004). TYE-563-fluorescent labeled siRNA duplex (Origene #SR30002) was used as the transfection control. Cells were trypsinized, counted using a Countess Automated Cell Counter (Life Technologies, Carlsbad, Calif.), and seeded at 25,000-30,000 cells/cm^2, the cells being allowed to attach for 16-18 hours. The growth media was replaced with fresh antibiotic free complete growth medium just prior to transfection. […] Media was changed to complete growth medium plus antibiotics after 24 hours. RNA levels were analyzed 48 hours post-transfection, and protein levels were analyzed at 60 hours post-transfection.\nRNA extraction was performed using the IBI-Trizol based total RNA purification kit (MidSci #IB47632, St. Louis, Mo.), and reverse transcription was performed using Maxima First Strand cDNA synthesis kit (Thermo Fisher Scientific #K1642, Waltham, Mass.) following the manufacturers' protocols. Real time-quantitative PCR and melt curve analysis were performed using Maxima SYBR-Green qPCR master mix (Thermo Fisher Scientific #K0241) and a T100 thermal cycler (Biorad #1861096, Hercules, Calif.). RNA and DNA concentrations were estimated using a Nanodrop2000 (Thermo Fisher Scientific, Waltham, Mass.) spectrophotometer. Primers were obtained from Sigma-Aldrich for the following human genes, with primer efficiency being experimentally confirmed: GAPDH, b-Actin, GHR, GHRHR, SOCS2, IGF1, IGF1R, IGF2, IGF2R, PRL, PRLR, insulin (Ins), IR, IGFBP2, IGFBP3, EGFR, HGF, cMET and ERBB3. Each sample represented a pool of two replicates per experiment. Experiments were performed at least three times. Each qPCR for individual genes and every treatment for every cell type was performed in triplicates.\nAnd so—referring now to FIGS. 12A-12B, 17A-17C, 18A-18F, 19A-19F, and 20A-20F—RT-qPCR analysis of GH-IGF axis in human melanoma cells (FIGS. 12A-12B) and RT-qPCR analysis of GH-GHR and PRL-PRLR pairs in human melanoma cells (FIGS. 17A-17C) was performed. […] And, while not shown in FIGS. 12A and 12B, similar results for MALME-3M, MDA-MB-435 and SK-MEL-5 human melanoma cells are presented in FIGS. 13A-13L, 17A-17C, 18A-18F, 19A-19F, and 20A-20F. […] In all cases, exogenous hGH treatment was for 24 hr. RNA levels were normalized against expression of beta-actin and GAPDH as reference genes. […] Cells were grown in presence of 50 ng/mL exogenous GH and protein level changes were estimated 60 hr. post-transfection. [*, p<0.05, Students t test, n=3]. […] The percentage free area at the end time point was calculated using ImageJ software and reflected the decrease/inhibition in migration. […] [*, p<0.05, Students t-test, n=3]. In all cases, exogenous hGH treatment was for 24 hr. RNA levels were normalized against expression of β-actin and GAPDH as reference genes [*, p<0.05, Wilcoxon sign rank test, n=4]. […] In all cases, exogenous hGH treatment was for 24 hr. RNA levels were normalized against expression of β-actin and GAPDH as reference genes. [*, p<0.05, Wilcoxon sign rank test, n=4]", "key": {"[1]": {"details": "0, 5, 50 and 150 ng/mL hGH, 24 hr"}}}
{"substance": "hGH: Recombinant human growth hormone, Antibodies Online #ABIN2017921", "values": [{"measurement": "IGFBP2 RNA levels at high GH levels", "result": "increase"}, {"measurement": "N-cadherin RNA levels with increase of GH", "result": "significant dose-dependent increase"}, {"measurement": "vimentin RNA levels with increase of GH", "result": "significant dose-dependent increase"}, {"measurement": "RNA levels of MITF with GH", "setting": "[1]", "result": "dose dependent increase"}, {"measurement": "RNA levels of TYRP1 with GH", "setting": "[1]", "result": "dose-dependent increase"}]}
